Measured values from paper PMC4646422 (ACS chemical biology, 2015).
“And” between values parts separate entries of the source, which are not always exact repeats. Identical values can stand only once. Like-named read-outs stand apart in the source and are kept apart here. Values belong to the molecule of their own block, whether it stands above or below them.

Legend:
[1] = target: malate dehydrogenase (MDH); assay: Malate dehydrogenase; type: biochemical; settings: for inhibition of MDH (in words): counter-screening enzyme
[2] = type: physicochemical; settings: for radius: DLS, 25 °C, at twice the compound's CAC; for radius / CAC (critical aggregation concentration): ND = not detected to precipitation limit; for CAC (critical aggregation concentration): dynamic light scattering, 50 mM KPi pH 7.0, 1% DMSO; for particle formation observed by DLS: up to solubility limits; for concentration at which the molecule may aggregate: authors' summary in the discussion
P-glycoprotein = settings: read-out: EC50, P-glycoprotein; representative literature value; cited from earlier work
CYP3A4 = settings: read-out: EC50, CYP3A4; representative literature value; cited from earlier work
AmpC β-lactamase = AmpC β-lactamase (Escherichia coli, UniProt P00811); assay: biochemical; type: biochemical; settings: for inhibition of AmpC β-lactamase (in words): counter-screening enzyme; for IC50: IC50 vs AmpC β-lactamase
Sequence of AmpC β-lactamase (P00811 20-377): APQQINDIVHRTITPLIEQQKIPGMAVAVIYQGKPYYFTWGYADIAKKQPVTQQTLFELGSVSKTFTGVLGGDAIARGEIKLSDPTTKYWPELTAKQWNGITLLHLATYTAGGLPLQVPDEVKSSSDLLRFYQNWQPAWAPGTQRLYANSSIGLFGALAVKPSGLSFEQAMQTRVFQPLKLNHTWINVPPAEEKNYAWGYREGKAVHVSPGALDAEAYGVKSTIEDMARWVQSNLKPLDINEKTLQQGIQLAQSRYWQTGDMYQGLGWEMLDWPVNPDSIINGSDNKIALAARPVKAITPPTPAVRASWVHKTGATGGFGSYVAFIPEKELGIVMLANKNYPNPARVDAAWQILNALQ

CDK2 = settings: read-out: EC50, CDK2; representative literature value; cited from earlier work
HIV-2 protease [3] = target: T1, HIV-2 protease (Human immunodeficiency virus type 2 subtype A, UniProt P04584); settings: read-out: EC50, HIV-2 protease; representative literature value; cited from earlier work
T1 sequence (P04584 514-612 limits assumed): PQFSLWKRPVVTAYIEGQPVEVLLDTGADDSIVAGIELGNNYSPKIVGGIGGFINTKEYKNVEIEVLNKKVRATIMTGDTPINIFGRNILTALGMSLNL

Ca^2+-ATPase = settings: read-out: EC50, Ca^2+-ATPase; representative literature value; cited from earlier work
HIV-1 protease = settings: read-out: EC50, HIV-1 protease; representative literature value; cited from earlier work
HIV-2 protease [4] = target: T1, HIV-2 protease; assay: HIV-2 protease inhibition assay; settings: IC50 vs HIV-2 protease, 50 mM sodium acetate, pH 5.5, 200 mM sodium chloride
GL01 = settings: read-out: EC50, GL01; representative literature value; cited from earlier work
[5] = target: Trypsin from porcine pancreas (Sus scrofa, UniProt P00761); assay: Trypsin inhibition assay; type: biochemical; settings: IC50 vs trypsin, 50 mM potassium phosphate
Sequence of Trypsin from porcine pancreas (P00761 9-231): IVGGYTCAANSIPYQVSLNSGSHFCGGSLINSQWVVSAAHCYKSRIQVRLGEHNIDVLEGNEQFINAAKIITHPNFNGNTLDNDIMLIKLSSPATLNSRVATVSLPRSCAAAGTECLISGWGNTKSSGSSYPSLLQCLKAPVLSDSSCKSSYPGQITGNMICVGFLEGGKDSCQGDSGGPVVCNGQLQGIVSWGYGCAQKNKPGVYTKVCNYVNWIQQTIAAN

trypsin = settings: read-out: EC50, trypsin; representative literature value; cited from earlier work
MMP = settings: read-out: EC50, MMP; representative literature value; cited from earlier work
AMPK = settings: read-out: EC50, AMPK; representative literature value; cited from earlier work
11 β HSD1 = settings: read-out: EC50, 11 β HSD1; representative literature value; cited from earlier work
DYRK1A and CLK1 = settings: read-out: EC50, DYRK1A and CLK1; representative literature value; cited from earlier work
ERR = settings: read-out: EC50, ERR; representative literature value; cited from earlier work
CDK = settings: read-out: EC50, CDK; representative literature value; cited from earlier work
OCT2 = settings: read-out: EC50, OCT2; representative literature value; cited from earlier work
MATE1 = settings: read-out: EC50, MATE1; representative literature value; cited from earlier work
hCNT = settings: read-out: EC50, hCNT; representative literature value; cited from earlier work
PTP1B = settings: read-out: EC50, PTP1B; representative literature value; cited from earlier work
ASICs = settings: read-out: EC50, ASICs; representative literature value; cited from earlier work
Hsp90 = settings: read-out: EC50, Hsp90; representative literature value; cited from earlier work
GLUT4 = settings: read-out: EC50, GLUT4; representative literature value; cited from earlier work
[6] = read-out: IC50 vs MDH, no detergent, 50 mM potassium phosphate, pH 7.0, ND = not detected to precipitation limit
[7] = read-out: IC50 vs MDH, with detergent, 50 mM potassium phosphate, pH 7.0 + 0.01% (v/v) Triton X-100, ND = not detected to precipitation limit
[8] = read-out: IC50 vs MDH, with DTT, with 1 mM DTT
[9] = with detergent, pH 7.0 + 0.01% (v/v) Triton X-100

IC50 [1, 6]: 1.6 µM
IC50 [1, 7]: 84 µM
radius [2]: 52 ± 10 nm
CAC (critical aggregation concentration) [2]: 57 ± 7 µM
Structure (SMILES): Oc1ccc2c(c1)OC[C@]1(O)Cc3cc(O)c(O)cc3[C@H]21 [brazilin]

Structure (SMILES): C[C@]12CC[C@H](O)C[C@H]1CC[C@@H]1[C@@H]2CC[C@]2(C)[C@@H](c3ccc(=O)oc3)CC[C@]12O [bufalin]
IC50 [1, 6]: 101 µM
IC50 [1, 7]: > 200 µM
radius [2]: 1317 ± 394 nm
CAC (critical aggregation concentration) [2]: 51 ± 3 µM
EC50 (P-glycoprotein): 100 µM
EC50 (CYP3A4): 14.5 µM

Structure (SMILES): COc1ccc2c(c1OC)CN1CCc3cc4c(cc3[C@@H]1C2)OCO4 [canadine]
inhibition of AmpC β-lactamase (in words) (AmpC β-lactamase): did not inhibit
inhibition of MDH (in words) [1]: did not inhibit
radius [2]: 52 ± 14 nm
CAC (critical aggregation concentration) [2]: 95 ± 11 µM
particle formation observed by DLS [2]: formed particles
EC50 (CDK2): > 50 µM

Structure (SMILES): COc1cc(/C=C/C(=O)CC(=O)/C=C/c2ccc(O)c(OC)c2)ccc1O [curcumin]
IC50 ([1]; read-out: IC50 vs MDH, no DTT): 9 µM
IC50 [1, 6]: 9 µM
IC50 [1, 8]: 10 µM
IC50 [1, 7]: > 30 µM
radius [2]: 465 ± 30 nm
CAC (critical aggregation concentration) [2]: 17 µM and 17 ± 0.44 µM
EC50 (HIV-2 protease [3]): 250 µM
EC50 (Ca^2+-ATPase): ~3 µM
EC50 (HIV-1 protease): 100 µM
IC50 (HIV-2 protease [4]; no detergent, 1 mM EDTA and 0.5 mM TCEP): 19 µM
IC50 (HIV-2 protease [4]; with detergent, 1 mM EDTA and 0.5 mM TCEP + 0.01% (v/v) Triton X-100): > 100 µM

Structure (SMILES): Oc1cc(O)c2cc(O)c(-c3cc(O)c(O)c(O)c3)[o+]c2c1 [delphinidin]
IC50 [1, 6]: 27 µM
IC50 [1, 7]: > 100 µM
particle formation observed by DLS [2]: no particles were observed
EC50 (GL01): 1.9 µM

IC50 [1, 6]: 49 µM
IC50 [1, 7]: > 200 µM
radius [2]: 269 ± 49 nm
CAC (critical aggregation concentration) [2]: 40 ± 4.0 µM
Structure (SMILES): COc1cc2c(O)c3c(c(-c4ccc5c(c4)OCO5)c2cc1OC)C(=O)OC3 [diphyllin]

Structure (SMILES): Cc1cc(O)c2c(c1)C(=O)c1cc(O)cc(O)c1C2=O [emodin]
IC50 (AmpC β-lactamase; no DTT): 27 µM
IC50 (AmpC β-lactamase; with DTT, with 1 mM DTT): 17 µM
IC50 ([1]; read-out: IC50 vs MDH, no DTT): 28 µM
IC50 [1, 6]: 28 µM
IC50 [1, 8]: 18 µM
IC50 [1, 7]: > 100 µM
IC50 ([5]; no detergent, pH 7.0): 49 µM
IC50 [5, 9]: > 500 µM
radius [2]: 231 ± 61 nm
CAC (critical aggregation concentration) [2]: 28 ± 2 µM
EC50 (trypsin): 50 µM
EC50 (MMP): 12.8 to 20.1 µM
EC50 (AMPK): 0.5 µM
EC50 (11 β HSD1): 4.2 to 7.2 µM
EC50 (DYRK1A and CLK1): 4.2 to 6.1 µM

concentration at which the molecule may aggregate [2]: ≥ 100 µM
particle formation observed by DLS [2]: no particles were observed
Structure (SMILES): Oc1ccc([C@H]2COc3cc(O)ccc3C2)cc1 [equol]
EC50 (ERR): 5.8 µM

IC50 [1, 6]: 61 µM
IC50 [1, 7]: > 100 µM
IC50 ([5]; no detergent, pH 7.0): 110 µM
IC50 [5, 9]: > 250 µM
radius [2]: 61 ± 20 nm
CAC (critical aggregation concentration) [2]: 81 ± 26 µM
Structure (SMILES): O=c1c(O)c(-c2ccc(O)cc2)oc2cc(O)cc(O)c12 [kaempferol]
EC50 (CDK): 2.5 to 51 µM

Structure (SMILES): COc1ccc2c(c1OC)C(=O)O[C@@H]2[C@H]1c2c(cc3c(c2OC)OCO3)CCN1C [noscapine]
inhibition of AmpC β-lactamase (in words) (AmpC β-lactamase): no inhibition
inhibition of MDH (in words) [1]: no inhibition
particle formation observed by DLS [2]: no particles were observed
EC50 (OCT2): 2.6 µM
EC50 (MATE1): 34.5 µM

Structure (SMILES): O=C(CCc1ccc(O)cc1)c1c(O)cc(O)cc1O[C@@H]1O[C@H](CO)[C@@H](O)[C@H](O)[C@H]1O [phlorizin]
inhibition of AmpC β-lactamase (in words) (AmpC β-lactamase): no inhibition
inhibition of MDH (in words) [1]: no inhibition
particle formation observed by DLS [2]: no particles were observed
EC50 (hCNT): 100 to 200 µM

Structure (SMILES): COc1cc(O)c2c(c1)C(=O)c1cc(C)cc(O)c1C2=O [physcion]
IC50 (AmpC β-lactamase; no DTT): 7 µM
IC50 (AmpC β-lactamase; with DTT, with 1 mM DTT): 11 µM
IC50 ([1]; read-out: IC50 vs MDH, no DTT): 11 µM
IC50 [1, 6]: 11 µM
IC50 [1, 8]: 8 µM
IC50 [1, 7]: > 20 µM
radius [2]: 320 ± 83 nm
CAC (critical aggregation concentration) [2]: 0.32 ± 0.025 µM
EC50 (PTP1B): 20 µM
EC50 (MMP): 26.8 to 45.3 µM

IC50 [1, 6]: 135 µM
IC50 [1, 7]: 156 µM
radius [2]: 78 ± 25 nm
concentration at which the molecule may aggregate [2]: ≥ 100 µM
CAC (critical aggregation concentration) [2]: 135 µM and 135 ± 40 µM
Structure (SMILES): O=c1c(-c2ccc(O)cc2)coc2c([C@@H]3O[C@H](CO)[C@@H](O)[C@H](O)[C@H]3O)c(O)ccc12 [puerarin]
EC50 (ASICs): 38.4 µM

IC50 [1, 6]: 12 µM
IC50 [1, 7]: > 100 µM
radius [2]: 53 ± 16 nm
CAC (critical aggregation concentration) [2]: 0.47 ± 0.15 µM
Structure (SMILES): COc1cc(C2Oc3cc([C@H]4Oc5cc(O)cc(O)c5C(=O)[C@@H]4O)ccc3OC2CO)ccc1O (stereo partly shown) [silibinin]
EC50 (Hsp90): 250 µM
EC50 (GLUT4): 60 µM
